Where a name gives a salt, the structure may show the parent alone.

As usually defined, the melting point is the temperature of the solid-liquid transition. `CCc1nc2c(cnn2CC)c(NC2CCOCC2)c1CNC(=O)c1cccc(C(=O)NCc2ccc(Cl)c(-c3cccc(CN4CCCN(C)CC4)c3)c2)c1` [Example 218, N-({6-Chloro-3′-[(4-methylhexahydro-1H-1,4-diazepin-1-yl)methyl]-3-biphenylyl}methyl)-N′-{[1,6-diethyl-4-(tetrahydro-2H-pyran-4-ylamino)-1H-pyrazolo[3,4-b]pyridin-5-yl]methyl}-1,3-benzenedicarboxamide]: the melting point was in the range of 105 to 107 °C. The value for `CCc1nc2c(cnn2CC)c(NC2CCOCC2)c1CNC(=O)c1cccc(C(=O)NCc2cc(Cl)cc(-c3cccc(CN4C[C@@H]5C[C@H]4CN5)c3)c2)c1` [Example 431, N-({5-Chloro-3′-[(1S,4S)-2,5-diazabicyclo [2.2.1]hept-2-ylmethyl]-3-biphenylyl}methyl)-N′-{[1,6-diethyl-4-(tetrahydro-2H-pyran-4-ylamino)-1H-pyrazolo[3,4-b]pyridin-5-yl]methyl}-1,3-benzenedicarboxamide] was 130 to 133 °C. The figure for `CCc1nc2c(cnn2CC)c(NC2CCOCC2)c1CNC(=O)c1cccc(C(=O)NCc2ccc(F)c(-c3cccc(CN4C[C@H](C)NC[C@H]4C)c3)c2)c1` [Example 198, N-{[1,6-Diethyl-4-(tetrahydro-2H-pyran-4-ylamino)-1H-pyrazolo[3,4-b]pyridin-5-yl]methyl}-N′-[(3′-{[(2R,5S)-2,5-dimethyl-1-piperazinyl]methyl}-6-fluoro-3-biphenylyl)methyl]-1,3-benzenedicarboxamide] is 187 to 190 °C (dec.). With `CCc1nc2c(cnn2CC)c(NC2CCOCC2)c1CNC(=O)c1cc(C)cc(C(=O)NCc2ccc(C)c(-c3cccc(C=O)c3)c2)c1`, the melting point is 117 to 120 °C.

`CCc1nc2c(cnn2CC)c(NC2CCOCC2)c1CNC(=O)c1cccc(C(=O)NCc2ccc(C)c(-c3cccc(CN4CCCNCC4)c3)c2)c1` [Example 196, N-{[1,6-Diethyl-4-(tetrahydro-2H-pyran-4-ylamino)-1H-pyrazolo[3,4-b]pyridin-5-yl]methyl}-N′-{[3′-(hexahydro-1H-1,4-diazepin-1-ylmethyl)-6-methyl-3-biphenylyl]methyl}-1,3-benzenedicarboxamide] showed a melting point of 118 to 120 °C.

`CCc1nc2c(cnn2CC)c(NC2CCOCC2)c1CNC(=O)c1cccc(C(=O)O)c1` gave a melting point of 207 to 209 °C. The figure for `CCc1nc2c(cnn2CC)c(NC2CCOCC2)c1CNC(=O)c1cccc(C(=O)NCc2ccc(C)c(-c3cccc(CN4CCNCC4)c3)c2)c1` [Example 192, N-{[1,6-Diethyl-4-(tetrahydro-2H-pyran-4-ylamino)-1H-pyrazolo[3,4-b]pyridin-5-yl]methyl}-N′-{[6-methyl-3′-(1-piperazinylmethyl)-3-biphenylyl]methyl}-1,3-benzenedicarboxamide] is 135 to 138 °C; for `CCc1nc2c(cnn2CC)c(NC2CCOCC2)c1CNC(=O)c1cccc(C(=O)NCc2ccc(F)c(-c3cccc(CN4CCN(CC)CC4)c3)c2)c1` [Example 202, N-{[1,6-Diethyl-4-(tetrahydro-2H-pyran-4-ylamino)-1H-pyrazolo[3,4-b]pyridin-5-yl]methyl}-N′-({3′-[(4-ethyl-1-piperazinyl)methyl]-6-fluoro-3-biphenylyl}methyl)-1,3-benzenedicarboxamide] it is 155 to 158 °C; for `CCc1nc2c(cnn2CC)c(NC2CCOCC2)c1CNC(=O)c1cccc(C(=O)NCc2ccc(C)c(-c3cccc(CN4CCCN(C)CC4)c3)c2)c1` [Example 216, N-{[1,6-Diethyl-4-(tetrahydro-2H-pyran-4-ylamino)-1H-pyrazolo[3,4-b]pyridin-5-yl]methyl}-N′-({6-methyl-3′-[(4-methylhexahydro-1H-1,4-diazepin-1-yl)methyl]-3-biphenylyl}methyl)-1,3-benzenedicarboxamide] it is 107 to 109 °C. In turn, `CCc1nc2c(cnn2CC)c(NC2CCOCC2)c1CNC(=O)c1cccc(C(=O)NCc2cc(Cl)cc(-c3cccc(CN4CCNCC4)c3)c2)c1` [Example 424, N-{[5-Chloro-3′-(1-piperazinylmethyl)-3-biphenylyl]methyl}-N′-{[1,6-diethyl-4-(tetrahydro-2H-pyran-4-ylamino)-1H-pyrazolo[3,4-b]pyridin-5-yl]methyl}-1,3-benzenedicarboxamide] displayed a melting point of 119 to 122 °C. The figure for `CCc1nc2c(cnn2CC)c(NC2CCOCC2)c1CNC(=O)c1cccc(C(=O)NCc2ccc(F)c(-c3cccc(CN4CCN[C@@H](C)C4)c3)c2)c1` (as salt: TFA) [Example 205, N-{[1,6-Diethyl-4-(tetrahydro-2H-pyran-4-ylamino)-1H-pyrazolo[3,4-b]pyridin-5-yl]methyl}-N′-[(6-fluoro-3′-{[(3S)-3-methyl-1-piperazinyl]methyl}-3-biphenylyl)methyl]-1,3-benzenedicarboxamide] is 100 to 113 °C.

With `CCc1nc2c(cnn2CC)c(NC2CCOCC2)c1CNC(=O)c1cccc(C(=O)NCc2cc(Cl)cc(-c3cccc(CN4C[C@@H](C)N[C@@H](C)C4)c3)c2)c1` [Example 429, N-[(5-Chloro-3′-{[(3R,5S)-3,5-dimethyl-1-piperazinyl]methyl}-3-biphenylyl)methyl]-N′-{[1,6-diethyl-4-(tetrahydro-2H-pyran-4-ylamino)-1H-pyrazolo[3,4-b]pyridin-5-yl]methyl}-1,3-benzenedicarboxamide], the melting point lay within 112 to 114 °C. The value for `CCc1nc2c(cnn2CC)c(NC2CCOCC2)c1CNC(=O)c1cc(C)cc(C(=O)NCc2ccc(Cl)c(-c3cccc(C=O)c3)c2)c1` was 153 to 156 °C.

As for `CCc1nc2c(cnn2CC)c(NC2CCOCC2)c1CNC(=O)c1cccc(C(=O)NCc2ccc(C)c(-c3cccc(CN4C[C@@H]5C[C@H]4CN5)c3)c2)c1` [Example 197, N-({3′-[(1S,4S)-2,5-Diazabicyclo [2.2.1]hept-2-ylmethyl]-6-methyl-3-biphenylyl}methyl)-N′-{[1,6-diethyl-4-(tetrahydro-2H-pyran-4-ylamino)-1H-pyrazolo[3,4-b]pyridin-5-yl]methyl}-1,3-benzenedicarboxamide], the melting point lay in the range of 138 to 140 °C. The value for `CCc1nc2c(cnn2CC)c(NC2CCOCC2)c1CNC(=O)c1cccc(C(=O)NCc2ccc(OC)c(-c3cccc(CN4C[C@@H]5C[C@H]4CN5)c3)c2)c1` [Example 194, N-{[3′-[(1S,4S)-2,5-Diazabicyclo [2.2.1]hept-2-ylmethyl]-6-(methyloxy)-3-biphenylyl]methyl}-N′-{[1,6-diethyl-4-(tetrahydro-2H-pyran-4-ylamino)-1H-pyrazolo[3,4-b]pyridin-5-yl]methyl}-1,3-benzenedicarboxamide] was 129 to 131 °C; that for `CCc1nc2c(cnn2CC)c(NC2CCOCC2)c1CNC(=O)c1cccc(C(=O)NCc2cc(Cl)cc(-c3cccc(CN4CCCN(C)CC4)c3)c2)c1` [Example 428, N-({5-Chloro-3′-[(4-methylhexahydro-1H-1,4-diazepin-1-yl)methyl]-3-biphenylyl}methyl)-N′-{[1,6-diethyl-4-(tetrahydro-2H-pyran-4-ylamino)-1H-pyrazolo[3,4-b]pyridin-5-yl]methyl}-1,3-benzenedicarboxamide] was 111 to 113 °C.

`CCc1nc2c(cnn2CC)c(NC2CCOCC2)c1CNC(=O)c1cc(C)cc(C(=O)NCc2ccc(F)c(-c3cccc(C=O)c3)c2)c1`: the melting point was in the range of 107 to 110 °C. The figure for `CCc1nc2c(cnn2CC)c(NC2CCOCC2)c1CNC(=O)c1cccc(C(=O)NCc2ccc(Cl)c(-c3cccc(CN4CCN[C@@H](C)C4)c3)c2)c1` [Example 215, N-[(6-Chloro-3′-{[(3S)-3-methyl-1-piperazinyl]methyl}-3-biphenylyl)methyl]-N′-{[1,6-diethyl-4-(tetrahydro-2H-pyran-4-ylamino)-1H-pyrazolo[3,4-b]pyridin-5-yl]methyl}-1,3-benzenedicarboxamide] is 116 to 118 °C. The figure for `CCc1nc2c(cnn2CC)c(NC2CCOCC2)c1CNC(=O)c1cccc(C(=O)NCc2ccc(Cl)c(-c3cccc(CN4CCCNCC4)c3)c2)c1` [Example 221, N-{[6-Chloro-3′-(hexahydro-1H-1,4-diazepin-1-ylmethyl)-3-biphenylyl]methyl}-N′-{[1,6-diethyl-4-(tetrahydro-2H-pyran-4-ylamino)-1H-pyrazolo[3,4-b]pyridin-5-yl]methyl}-1,3-benzenedicarboxamide] is 116 to 119 °C; for `CCc1nc2c(cnn2CC)c(NC2CCOCC2)c1CNC(=O)c1cc(C)cc(C(=O)NCc2cccc(-c3cccc(CC4CCNCC4)c3)c2)c1` [Example 426, N-{[1,6-Diethyl-4-(tetrahydro-2H-pyran-4-ylamino)-1H-pyrazolo[3,4-b]pyridin-5-yl]methyl}-5-methyl-N′-{[3′-(4-piperidinylmethyl)-3-biphenylyl]methyl}-1,3-benzenedicarboxamide] it is 130 to 132 °C.

The values are drawn from patent publication US8067408B2, “Dual pharmacophores—PDE4-muscarinic antagonistics” (priority 2008, dated 2011).
